# Where two headings read alike, the source gives them in different places.
# Experiment: LTI-291-001 single ascending dose study: plasma pharmacokinetics and food effect
# Assay type: in vivo, human
# Conditions: for Vd/F: read-out: Vz/F
# Method: This study was a first-in-human Phase 1, randomized, double-blind, placebo-controlled, single-ascending dose study to evaluate the safety and tolerability, PK, and PD of escalating single oral doses of Compound A (3, 10, 30, and 90 mg) in 4 cohorts of healthy subjects. A total of 32 subjects received a single oral dose of Compound A (8 per dose group) and 8 subjects received placebo. The effect of food on the PK of Compound A was evaluated by administering a second single oral dose of 10 mg Compound A to the subjects in Cohort 2 on a separate occasion, after subjects had completed a high-fat breakfast. Blood samples for Compound A PK were collected up to 48 hours after each dose.
# [1] = 3 mg fasted, single oral dose, geometric mean
# [2] = 10 mg fasted, single oral dose, geometric mean
# [3] = 10 mg fed, single oral dose, geometric mean
# [4] = 10 mg, high-fat breakfast vs fasted
# [5] = 30 mg fasted, single oral dose, geometric mean
# [6] = 90 mg fasted, single oral dose, geometric mean
# [7] = human, plasma, po, 3 mg, 3 mg fasted, single oral dose, geometric mean
# [8] = human, plasma, po, 10 mg, 10 mg fasted, single oral dose, geometric mean
# [9] = human, plasma, po, 10 mg, 10 mg fed, single oral dose, geometric mean
# [10] = human, plasma, po, 30 mg, 30 mg fasted, single oral dose, geometric mean
# [11] = human, plasma, po, 90 mg, 90 mg fasted, single oral dose, geometric mean
smiles,measurement,setting,value
"CCCCCO[C@H]1CC[C@H](NC(=O)c2cnn3c(C)cc(C)nc23)CC1 [Compound A, 5,7-dimethyl-N-((1S*,4S)-4-(pentyloxy)cyclohexyl)pyrazolo[1,5-a]pyrimidine-3-carboxamide]",AUC0-inf/dose,[1],754 ng·h/mL/mg
same,Cmax/dose,[1],36.4 ng/mL/mg
same,AUC0-inf/dose,[2],756 ng·h/mL/mg
same,Cmax/dose,[2],32.8 ng/mL/mg
same,Tmax,"10 mg fasted, single oral dose, median",1.01 h
same,AUC0-inf/dose,[3],853 ng·h/mL/mg
same,Cmax/dose,[3],23.4 ng/mL/mg
same,"ratio of geometric means fed to fasting, AUC0-inf",[4],111%
same,"ratio of geometric means fed to fasting, AUC0-last",[4],103%
same,"ratio of geometric means fed to fasting, Cmax",[4],71.3%
same,AUC0-inf/dose,[5],821 ng·h/mL/mg
same,Cmax/dose,[5],32.0 ng/mL/mg
same,AUC0-inf/dose,[6],704 ng·h/mL/mg
same,Cmax/dose,[6],29.4 ng/mL/mg
same,total exposure (Cmax and AUC0-inf) versus dose,entire dose range 3-90 mg,increase in a dose proportional manner
same,half-life,"human, plasma, oral, across fasted and fed groups, read-out: Geometric mean t1/2",21.2 to 23.4 h
same,Tmax,"human, plasma, oral, single dose 3-90 mg, fasted, medians across dose groups, read-out: median Tmax",1 to 3 h
same,Tmax,"human, plasma, oral, single dose 3-90 mg, fasted, minimum to maximum, read-out: Tmax, range",1 to 8.2 h
same,AUC(0-inf),[7],2260 ng·h/mL
same,AUC(0-t),[7],1560 ng·h/mL
same,Cmax,[7],109 ng/mL
same,Vd/F,[7],40.5 L
same,half-life,"human, plasma, po, 3 mg, 3 mg fasted, single oral dose, geometric mean, read-out: t1/2 (converted)",21.2 h
same,Tmax,"human, plasma, po, 3 mg, 3 mg fasted, single oral dose, median, read-out: Tmax",1.48 h
same,AUC(0-inf),[8],7560 ng·h/mL
same,AUC(0-t),[8],5690 ng·h/mL
same,Cmax,[8],328 ng/mL
same,Vd/F,[8],42.4 L
same,half-life,"human, plasma, po, 10 mg, 10 mg fasted, single oral dose, geometric mean, read-out: t1/2 (converted)",22.2 h
same,Tmax,"human, plasma, po, 10 mg, 10 mg fasted, single oral dose, median, read-out: Tmax",1 h
same,AUC(0-inf),[9],8530 ng·h/mL
same,AUC(0-t),[9],5860 ng·h/mL
same,Cmax,[9],234 ng/mL
same,Vd/F,[9],39.6 L
same,half-life,"human, plasma, po, 10 mg, 10 mg fed, single oral dose, geometric mean, read-out: t1/2 (converted)",23.4 h
same,Tmax,"human, plasma, po, 10 mg, 10 mg fed, single oral dose, median, read-out: Tmax",8 h
same,AUC(0-inf),[10],24600 ng·h/mL
same,AUC(0-t),[10],18400 ng·h/mL
same,Cmax,[10],961 ng/mL
same,Vd/F,[10],40.8 L
same,half-life,"human, plasma, po, 30 mg, 30 mg fasted, single oral dose, geometric mean, read-out: t1/2 (converted)",23.2 h
same,Tmax,"human, plasma, po, 30 mg, 30 mg fasted, single oral dose, median, read-out: Tmax",3.02 h
same,AUC(0-inf),[11],63400 ng·h/mL
same,AUC(0-t),[11],47800 ng·h/mL
same,Cmax,[11],2640 ng/mL
same,Vd/F,[11],47.7 L
same,half-life,"human, plasma, po, 90 mg, 90 mg fasted, single oral dose, geometric mean, read-out: t1/2 (converted)",23.3 h
same,Tmax,"human, plasma, po, 90 mg, 90 mg fasted, single oral dose, median, read-out: Tmax",2 h

# Reference: patent publication US20260240851A1, “Treatment of Parkinson's Disease in a Patient Using a Glucocerebrosidase Activator” (BIAL - R&D Investments, S.A., priority 2023, published 2026)
